According to publication PMC8296708, “The pan HDAC inhibitor Givinostat improves muscle function and histological parameters in two Duchenne muscular dystrophy murine models expressing different haplotypes of the LTBP4 gene” (Skeletal Muscle, 2021):

Columns and labels:
D2.B10 mice [1] = assay: Muscle fibrosis by Sirius Red staining in D2.B10 mice; format: in vivo, mouse (D2.B10-Dmd^mdx/J); details: for Reduction of fibrosis in DIA: T8; for Reduction of fibrosis in TA: T8, Givinostat 37.5 mg/kg, steroids 1 mg/kg, vs vehicle; for Effect on fibrosis in GAS: T16; for Efficacy on fibrosis in DIA: T16, Givinostat 37.5 mg/kg, prednisone
From the text: (§1) Tibialis anterior (TA), gastrocnemius (GAS), DIA, and heart were collected from mice maintained under isoflurane anesthesia and sacrificed by cervical dislocation. These muscles were collected from C57BL/10J wt and mdx (5 mice/group) at the end of treatments and from DBA/2J wt and D2.B10 mice (5 mice/group) at two different time points to be examined by a pathologist (for more details see Additional Table 1). Due to the results obtained by the functional tests, muscles from only some treatment groups were analyzed in both DMD models (see Additional Table 1). All the collected muscles were fixed in 10% buffered formalin solution (Bio-optica, Milan, Italy) at + 4 °C for at least 48 h. After fixation, muscular samples were transversely trimmed, caged, and paraffin embedded overnight with an Automated Vacuum Tissue Processor Floor (ETP, Histo-Line Laboratories) and included in paraffin blocks. Serial transverse cross-sections (4 μm thick) were cut with a microtome (Leica RM 2255), collected onto uncoated glass slides, and stained using a standard protocol for hematoxylin and eosin (Mayer hematoxylin & Aqueous G Eosin 1%, Bio-Optica) and Sirius Red staining (Direct Red 80, Sigma-Aldrich). For the image analysis and quantitation, hematoxylin and eosin- and Sirius Red-stained slides were examined with an Olympus BX51 light microscope. From each sample, 1 to 3 random microphotographs at the magnification of × 4 and × 10 (TA, GAS and heart) or × 20 (DIA) were collected using Image-Pro Plus system. The digital images were processed by a pathologist using ImageJ software (U.S. National Institutes of Health, Bethesda, MD, USA). To quantify CSA and centralized nuclei (%) on hematoxylin and eosin-stained sections, one hundred myofibers were manually measured for each muscle/mouse using a tablet pen (Wacom Intruos) and analyzed by the ImageJ software after a linear calibration of 150 μm. The fibrotic area, corresponding to the area stained in red, was compared to the total area of the tissue section, and the results were expressed as percentage fibrosis. The % of fibrosis of muscles in the different treatment groups was expressed by averaging the three values obtained from each muscle.

D2.B10 mice [2] = assay: Myofiber cross-sectional area (CSA) in D2.B10 mice; format: in vivo, mouse (D2.B10-Dmd^mdx/J); details: for TA CSA / GAS CSA: D2.B10 mice, Givinostat 37.5 mg/kg
From the text: as §1
The deciles of the CSA of the animals treated with Givinostat at the different doses were plotted against the corresponding deciles of the vehicle-treated mice and a linear regression analysis was performed on natural [CSAtreated = b CSAcontrol + a] and log_transformed data [log(CSAtreated) = log(a) + b log(CSAcontrol)]. […] In case of untransformed data, this means that the effect of Givinostat treatment is additive and any decile of the CSAtreatment distribution may be derived from the control data summing up a constant quantity (S) to each fiber AREA of the control group (CSAtreated = CSAcontrol + S). In case of log_transformed data, the effect of Givinostat has to be considered as a multiplicative factor on any generic fiber of the muscle under evaluation, whose size, after the treatment, results K times larger in comparison to the control group value (CSAtreated […] = K × CSAcontrol, with K = 10^a). The S or K parameter values were then determined through an iterative estimation procedure, based on sum of squares (SSQ) minimization, directly comparing the CSA distribution observed in treated animals with that obtained summing up the S value or multiplying by K the CSA values of the control group.

[3] = Body weight of D2.B10 mice; format: in vivo, mouse (D2.B10-Dmd^mdx/J)
Description: In the efficacy studies, Givinostat powder (ITF2357) was suspended in 0.5% methylcellulose (Sigma-Aldrich) and administered p.o. (by gavage) at the doses of 0.1, 0.3, 1, 5, 10, 25, and 37.5 mg/kg qdx5x15weeks (administration volume per mouse: 10 mL/kg) in mdx mice (see Additional Figure 1A). Vehicle-treated mdx mice received 0.5% methylcellulose suspension. Givinostat suspension was stored at + 4 °C, and it was freshly prepared every 7 days. Probably due to the impairment of their tongue and masticatory muscles, the oral gavage procedure turned out to be difficult to perform, and chronic treatment of D2.B10 mice by this route was considered to bear a high risk of damaging the esophagus. For this reason, Givinostat was administered in the drinking water. Givinostat was dissolved in filtered tap water and was administered in drinking water (throughout 24 h) for 105 days at the dose of 1, 5, 10, and 37.5 mg/kg/day, according to a daily estimate of water consumption of 4 ml/mouse/day. Water consumption was weekly monitored throughout the entire duration of the study weighing the bottle of each cage (maximum 4 mice per cage). Prednisone and Deflazacort powder (Sigma-Aldrich) was dissolved in 2% DMSO (Sigma-Aldrich) and diluted in sterile saline on injection days. Both drugs were administered weekly (for 15 weeks) by i.p. injection at the dose of 1 mg/kg in a volume of 10 mL/kg. […] All mice were monitored daily and tolerability was evaluated on the basis of BW and clinical signs.
In both efficacy studies, the effectiveness of treatments was evaluated every week by measuring the forelimb strength by a grip strength meter (Ugo Basile SRL, Italy). BW of mdx (see Additional Figure 2) and D2.B10 mice (see Additional Figure 3) was also measured in order to normalize the absolute grip strength of each mouse with respect to its BW. […] The highest recorded value of maximal normalized strength (FNmax) obtained for each mouse at all the time points (from T0 to T15) was used for further analysis.

mdx mice = assay: Centralized nuclei (%) in muscles of mdx mice; format: in vivo, mouse (C57BL/10ScSn-Dmd^mdx/J); details: T16
From the text: as §1

[4] = T8, prednisone 1 mg/kg (vehicle 600)
[5] = T8, prednisone 1 mg/kg (vehicle 1050)
[6] = T16, prednisone 1 mg/kg (vehicle 300)

C[C@]12C=CC(=O)C=C1CC[C@@H]1[C@@H]2C(=O)C[C@@]2(C)[C@H]1CC[C@]2(O)C(=O)CO [prednisone]
Effect of steroid on fibrosis, summary (D2.B10 mice [1]; 1 mg/kg i.p. weekly): significantly reduced fibrosis in TA, GAS, and DIA
Reduction of fibrosis in DIA (D2.B10 mice [1]): ~45%
Reduction of fibrosis in TA (D2.B10 mice [1]): about 22%
Reduction of fibrosis in GAS (D2.B10 mice [1]; T8, vs vehicle): about 26%
Effect on fibrosis in GAS (D2.B10 mice [1]): No significant effect
Efficacy on fibrosis in DIA (D2.B10 mice [1]): lost
TA CSA (D2.B10 mice [2]; [4]): 300 μm^2
GAS CSA (D2.B10 mice [2]; [5]): 600 μm^2
GAS CSA (D2.B10 mice [2]; [6]): 300 μm^2
TA CSA (D2.B10 mice [2]; [6]): 300 μm^2
Effect of steroid on cross-sectional area and centralized nuclei (D2.B10 mice [2]; D2.B10 muscles, 1 mg/kg i.p. weekly): unable to affect cross-sectional area or the number of centralized nuclei
Body weight vs vehicle-treated mice ([3]; mouse, in vivo): no significant differences

CCN(CC)Cc1ccc2cc(COC(=O)Nc3ccc(C(=O)NO)cc3)ccc2c1 [Givinostat]
Reduction of fibrosis in DIA (D2.B10 mice [1]): about 33%
Reduction of fibrosis in TA (D2.B10 mice [1]): about 22%
Effect on fibrosis in GAS (D2.B10 mice [1]): No significant effect
Efficacy on fibrosis in DIA (D2.B10 mice [1]): lost
TA CSA (D2.B10 mice [2]; [4]): 300 μm^2
GAS CSA (D2.B10 mice [2]; [5]): 600 μm^2
GAS CSA (D2.B10 mice [2]; [6]): 450 μm^2
TA CSA (D2.B10 mice [2]; [6]): 300 μm^2
Body weight vs vehicle-treated mice ([3]; D2.B10 mice): no significant differences
Nuclear centralization in DIA (mdx mice; 1 mg/kg): 57 ± 2.9%
Nuclear centralization in GAS (mdx mice; 1 mg/kg): 67.6 ± 2.4%
Nuclear centralization in TA (mdx mice; 1 mg/kg): 71 ± 1.6%
Nuclear centralization in DIA (mdx mice; 10 mg/kg): 61.4 ± 3.5%
Nuclear centralization in GAS (mdx mice; 10 mg/kg): 58 ± 3%
Nuclear centralization in TA (mdx mice; 10 mg/kg): 73.2 ± 3.7%
Nuclear centralization in DIA (mdx mice; 37.5 mg/kg): 41.4 ± 4.5%
Nuclear centralization in GAS (mdx mice; 37.5 mg/kg): 61.3 ± 3.8%
Nuclear centralization in TA (mdx mice; 37.5 mg/kg): 60.8 ± 2.5%
